Literature values as cited in patent US7482343B2, “Compounds, methods and compositions” (Cytokinetics, Inc., priority 2002, dated 2009).

Tested on: A549 cells
Conditions: data provided by National Cancer Institute

Row | Compound | GI50 [nM]
1 | O=c1[nH]cc(F)c(=O)[nH]1 [5-fluorouracil] | 1000
2 | COc1cccc2c1C(=O)c1c(O)c3c(c(O)c1C2=O)C[C@@](O)(C(=O)CO)C[C@@H]3O[C@H]1C[C@H](N)[C@H](O)[C@H](C)O1 [doxorubicin] | 63
3 | NC(=O)NO [hydroxyurea] | 500000
4 | CC(=O)O[C@H]1C(=O)[C@@]2(C)[C@H]([C@H](OC(=O)c3ccccc3)[C@]3(O)C[C@H](OC(=O)[C@H](O)[C@@H](NC(=O)c4ccccc4)c4ccccc4)C(C)=C1C3(C)C)[C@]1(OC(C)=O)CO[C@@H]1C[C@@H]2O [paclitaxel] | 4
